Assay results published in patent publication US6262051A, “Fungicidal methoximinomethyldioxazines” (Bayer Aktiengesellschaft, priority 1997, dated 2001).
Read-outs that look alike come from different tables or passages of the source.

Assays:
HPLC logP = type: physicochemical
Plasmopara viticola = assay: Example D: Plasmopara test (grapevine)/protective; type: in vivo; details: protective, 6 days after inoculation, vs untreated control; for pest or weed control at 100 g/ha: Plasmopara viticola, 144 h, read-out: Efficacy in %; for Efficacy in %: 100 g/ha
Procedure: Plasmopara test (grapevine)/protective Solvent: 47 parts by weight of acetone Emulsifier: 3 parts by weight of alkylaryl polyglycol ether To produce a suitable preparation of active compound, 1 part by weight of active compound is mixed with the stated amount of solvent and emulsifier, and the concentrate is diluted with water to the desired concentration. To test for protective activity, young plants are sprayed with the preparation of active compound at the stated application rate. […]

Pyricularia oryzae = type: in vivo; details: rice, protective; 750 g/ha; 4 days after inoculation; vs untreated control
Sphaerotheca fuliginea = assay: Example E: Sphaerotheca test (cucumber)/protective; type: in vivo; details: protective, 100 g/ha, 10 days after inoculation, vs untreated control
Procedure: Sphaerotheca test (cucumber)/protective Solvent: 47 parts by weight of acetone Emulsifier: 3 parts by weight of alkylaryl polyglycol ether To produce a suitable preparation of active compound, 1 part by weight of active compound is mixed with the stated amount of solvent and emulsifier, and the concentrate is diluted with water to the desired concentration. To test for protective activity, young plants are sprayed with the preparation of active compound at the stated application rate. After the spray coating is dried on, the plants are inoculated with an aqueous spore suspension of Sphaerotheca fuliginea.

[1] = tested on: Erysiphe graminis f.sp. hordei; assay: Example B: Erysiphe test (barley)/curative; type: in vivo; details: curative (sprayed 48 hours after inoculation), 250 g/ha, 7 days after inoculation, vs untreated control
Procedure: Erysiphe test (barley)/curative Solvent: 10 parts by weight of N-methyl-pyrrolidone Emulsifier: 0.6 part by weight of alkylaryl polyglycol ether To produce a suitable preparation of active compound, 1 part by weight of active compound is mixed with the stated amount of solvent and emulsifier, and the concentrate is diluted with water to the desired concentration. To test for curative activity, young plants are dusted with spores of Erysiphe graminis f.sp. hordei. 48 hours after the inoculation, the plants are sprayed with the preparation of active compound at the stated application rate. The plants are placed in a greenhouse at a temperature of approximately 20° C. and a relative atmospheric humidity of approximately 80% to promote the development of mildew postures.

CON=C(C1=NOCCO1)c1ccccc1Oc1nccc(OCc2cccc(F)c2)n1 [Example 19]
chromatographic logP (HPLC logP; Table 1): 3

CON=C(C1=NOCCO1)c1ccccc1Oc1nccc(OCCc2ccc(Cl)cc2)n1 [Example 26]
chromatographic logP (HPLC logP; Table 1): 3.5

CON=C(C1=NOCCO1)c1ccccc1Oc1nccc(N(C)Cc2ccccc2)n1 [Example 152]
chromatographic logP (HPLC logP; Table 1): 1.84

CON=C(C1=NOCCO1)c1ccccc1Oc1nccc(OCCc2ccccc2)n1 [Example 25]
chromatographic logP (HPLC logP; Table 1): 3.3

CON=C(C1=NOCCO1)c1ccccc1Oc1nccc(OC(C)c2ccccc2)n1 (stereo not drawn) [Example 21]
chromatographic logP (HPLC logP; Table 1): 3.1

C=CC(C)Oc1ccnc(Oc2ccccc2C(=NOC)C2=NOCCO2)n1 (stereo not drawn) [Example 164]
chromatographic logP (HPLC logP; Table 1): 2.7

CON=C(C1=NOCCO1)c1ccccc1Oc1nccc(OCC2CCCC2)n1 [Example 58]
chromatographic logP (HPLC logP; Table 1): 3.4

CON=C(C1=NOCCO1)c1ccccc1Oc1nccc(OCCCCCc2ccccc2)n1 [Example 159]
chromatographic logP (HPLC logP; Table 1): 4.1

CON=C(C1=NOCCO1)c1ccccc1Oc1nccc(OCC2(C)CC2(Cl)Cl)n1 (stereo not drawn) [Example 172]
chromatographic logP (HPLC logP; Table 1): 3.3

CCCCCOc1ccnc(Oc2ccccc2C(=NOC)C2=NOCCO2)n1 [Example 14]
pest or weed control at 100 g/ha (Plasmopara viticola): ≤ 100%
chromatographic logP (HPLC logP; Table 1): 3.3

CON=C(C1=NOCCO1)c1ccccc1Oc1nccc(OCCc2ccc(OC)cc2)n1 [Example 98]
chromatographic logP (HPLC logP; Table 1): 3

CON=C(C1=NOCCO1)c1ccccc1Oc1nccc(OC(C)C(F)(F)F)n1 (stereo not drawn) [Example 4]
chromatographic logP (HPLC logP; Table 1): 2.9

CON=C(C1=NOCCO1)c1ccccc1Oc1nccc(OCCF)n1 [Example 38]
chromatographic logP (HPLC logP; Table 1): 2

CON=C(C1=NOCCO1)c1ccccc1Oc1nccc(OCc2ccc(C)cc2)n1 [Example 16]
chromatographic logP (HPLC logP; Table 1): 3.2

CON=C(C1=NOCCO1)c1ccccc1Oc1nccc(OCC(Br)(Br)Br)n1 [drawing 37]
Efficacy in % (Plasmopara viticola): 100%

CON=C(C1=NOCCO1)c1ccccc1Oc1nccc(OC2CCCCC2)n1 [Example 27]
chromatographic logP (HPLC logP; Table 1): 3.3

C=CCOc1ccnc(Oc2ccccc2C(=NOC)C2=NOCCO2)n1 [Example 48]
chromatographic logP (HPLC logP; Table 1): 2.4

CCCCCCOc1ccnc(Oc2ccccc2C(=NOC)C2=NOCCO2)n1 [drawing 39]
Efficacy in % (Plasmopara viticola): 100%

CON=C(C1=NOCCO1)c1ccccc1Oc1nccc(SCc2ccccc2)n1 [Example 120]
chromatographic logP (HPLC logP; Table 1): 3.14

CCCCCOc1ccnc(Oc2ccccc2C(=NOC)C2=NOCCO2)n1 [drawing 40]
Efficacy in % (Plasmopara viticola): 99%

CON=C(C1=NOCCO1)c1ccccc1Oc1nccc(NC(C)c2ccccc2)n1 (stereo not drawn) [Example 171]
chromatographic logP (HPLC logP; Table 1): 1.8

C/C=C\COc1ccnc(Oc2ccccc2C(=NOC)C2=NOCCO2)n1 [Example 166]
chromatographic logP (HPLC logP; Table 1): 2.7

CON=C(C1=NOCCO1)c1ccccc1Oc1nccc(OCc2ccccc2F)n1 [Example 15]
chromatographic logP (HPLC logP; Table 1): 2.9

CON=C(C1=NOCCO1)c1ccccc1Oc1nccc(OCc2ccccc2)n1 [Example 12]
pest or weed control at 100 g/ha (Plasmopara viticola): ≤ 100%
chromatographic logP (HPLC logP; Table 1): 2.9

CCOc1ccnc(Oc2ccccc2C(=NOC)C2=NOCCO2)n1 [Example 5]
chromatographic logP (HPLC logP; Table 1): 2.2
Efficacy in % (Pyricularia oryzae): at least 70%

CCCCCCCCCCCCCCCCOc1ccnc(Oc2ccccc2C(=NOC)C2=NOCCO2)n1 [Example 163]
chromatographic logP (HPLC logP; Table 1): > 7.4

CON=C(C1=NOCCO1)c1ccccc1Oc1nccc(SC)n1 [Example 108]
chromatographic logP (HPLC logP; Table 1): 2.2

CCCCCCCCCOc1ccnc(Oc2ccccc2C(=NOC)C2=NOCCO2)n1 [Example 35]
chromatographic logP (HPLC logP; Table 1): 5.1

CON=C(C1=NOCCO1)c1ccccc1Oc1nccc(OCCc2ccccc2C(F)(F)F)n1 [Example 20]
chromatographic logP (HPLC logP; Table 1): 3.6

CON=C(C1=NOCCO1)c1ccccc1Oc1nccc(OCC(Br)(Br)Br)n1 [Example 11]
pest or weed control at 100 g/ha (Plasmopara viticola): ≤ 100%
chromatographic logP (HPLC logP; Table 1): 3.2

CON=C(C1=NOCCO1)c1ccccc1Oc1nccc(OCc2ccccc2)n1 [drawing 38]
Efficacy in % (Plasmopara viticola): 100%

C/C=C/C=C/COc1ccnc(Oc2ccccc2C(=NOC)C2=NOCCO2)n1 [Example 165]
chromatographic logP (HPLC logP; Table 1): 3.2

CCCCCCCOc1ccnc(Oc2ccccc2C(=NOC)C2=NOCCO2)n1 [Example 18]
chromatographic logP (HPLC logP; Table 1): 4.2

CON=C(C1=NOCCO1)c1ccccc1Oc1nccc(OCC(Cl)Cl)n1 [Example 10]
pest or weed control at 100 g/ha (Plasmopara viticola): ≤ 100%
chromatographic logP (HPLC logP; Table 1): 2.7

CON=C(C1=NOCCO1)c1ccccc1Oc1nccc(OCCc2ccccc2F)n1 [Example 17]
chromatographic logP (HPLC logP; Table 1): 3.2

CON=C(C1=NOCCO1)c1ccccc1Oc1nccc(OCC2C(C=C(C)C)C2(C)C)n1 (stereo not drawn) [Example 162]
chromatographic logP (HPLC logP; Table 1): 4.3

CCCCCCCCCCOc1ccnc(Oc2ccccc2C(=NOC)C2=NOCCO2)n1 [Example 36]
chromatographic logP (HPLC logP; Table 1): 5.6

CCCCCCCCOc1ccnc(Oc2ccccc2C(=NOC)C2=NOCCO2)n1 [Example 23]
chromatographic logP (HPLC logP; Table 1): 4.7

CON=C(C1=NOCCO1)c1ccccc1Oc1nccc(OCC(F)(F)C(F)(F)F)n1 [drawing 43]
Efficacy in % (Sphaerotheca fuliginea): 92%

CON=C(C1=NOCCO1)c1ccccc1Oc1nccc(OCC(Cl)(Cl)Cl)n1 [Example 2, (5,6-dihydro-[1,4,2]dioxazin-3-yl)-{2-[4-(2,2,2-trichloroethoxy)-pyrimidine-2-yloxy]-phenyl}-methanone O-methyl oxime]
pest or weed control at 100 g/ha (Plasmopara viticola): ≤ 100%
chromatographic logP (HPLC logP): 3.1
Efficacy in % (Sphaerotheca fuliginea): more than 90%

CON=C(C1=NOCCO1)c1ccccc1Oc1nccc(OCc2ccc(SC)cc2)n1 [Example 168]
chromatographic logP (HPLC logP; Table 1): 2.1

CON=C(C1=NOCCO1)c1ccccc1Oc1nccc(OCc2ccc(C)c(Cl)c2)n1 [Example 86]
chromatographic logP (HPLC logP; Table 1): 3.7

CCCOc1ccnc(Oc2ccccc2C(=NOC)C2=NOCCO2)n1 [Example 6]
chromatographic logP (HPLC logP; Table 1): 2.5
Efficacy in % (Pyricularia oryzae): at least 70%
Efficacy in % (Sphaerotheca fuliginea): more than 90%
Efficacy in % [1]: 100%

C#CCOc1ccnc(Oc2ccccc2C(=NOC)C2=NOCCO2)n1 [Example 160]
chromatographic logP (HPLC logP; Table 1): 2.1

CON=C(C1=NOCCO1)c1ccccc1Oc1nccc(OC(C)c2ccccc2Cl)n1 (stereo not drawn) [Example 24]
chromatographic logP (HPLC logP; Table 1): 3.4

CON=C(C1=NOCCO1)c1ccccc1Oc1nccc(OCCC(F)(F)F)n1 [Example 158]
chromatographic logP (HPLC logP; Table 1): 2.6

CON=C(C1=NOCCO1)c1ccccc1Oc1nccc(OCc2ccc(OC)cc2)n1 [Example 156]
chromatographic logP (HPLC logP; Table 1): 2.8

CCC(C)Oc1ccnc(Oc2ccccc2C(=NOC)C2=NOCCO2)n1 (stereo not drawn) [Example 29]
chromatographic logP (HPLC logP; Table 1): 2.9

CON=C(C1=NOCCO1)c1ccccc1Oc1nccc(OC(CF)CF)n1 [Example 1, (5,6-dihydro-[1,4,2]dioxazin-3-yl)-{2-[4-(2-fluoro-1-fluoromethyl-ethoxy)-pyrimidin-2-yloxy]-phenyl}-methanone O-methyl oxime]
pest or weed control at 100 g/ha (Plasmopara viticola): ≤ 100%
chromatographic logP (HPLC logP): 2.2

CON=C(C1=NOCCO1)c1ccccc1Oc1nccc(OCC(F)(F)C(F)F)n1 [Example 157]
chromatographic logP (HPLC logP; Table 1): 2.6

CON=C(C1=NOCCO1)c1ccccc1Oc1nccc(OC(C(F)(F)F)C(F)(F)F)n1 [Example 42]
chromatographic logP (HPLC logP; Table 1): 3.3

CON=C(C1=NOCCO1)c1ccccc1Oc1nccc(OC2CCCC2)n1 [Example 54]
chromatographic logP (HPLC logP; Table 1): 3

C=C(Br)COc1ccnc(Oc2ccccc2C(=NOC)C2=NOCCO2)n1 [Example 169]
chromatographic logP (HPLC logP; Table 1): 2.7

CON=C(C1=NOCCO1)c1ccccc1Oc1nccc(NCc2ccccc2)n1 [Example 136]
chromatographic logP (HPLC logP; Table 1): 1.6

CON=C(C1=NOCCO1)c1ccccc1Oc1nccc(OC(C)C)n1 [Example 7]
pest or weed control at 100 g/ha (Plasmopara viticola): ≤ 100%
chromatographic logP (HPLC logP; Table 1): 2.5

CON=C(C1=NOCCO1)c1ccccc1Oc1nccc(OCC2CC2)n1 [Example 59]
chromatographic logP (HPLC logP; Table 1): 2.5

CCCCOc1ccnc(Oc2ccccc2C(=NOC)C2=NOCCO2)n1 [Example 9]
pest or weed control at 100 g/ha (Plasmopara viticola): ≤ 100%
chromatographic logP (HPLC logP; Table 1): 3

CON=C(C1=NOCCO1)c1ccccc1Oc1nccc(OCC=Cc2ccccc2)n1 [Example 161]
chromatographic logP (HPLC logP; Table 1): 3.3

CON=C(C1=NOCCO1)c1ccccc1Oc1nccc(OCc2ccc(Cl)cc2)n1 [Example 22]
chromatographic logP (HPLC logP; Table 1): 3.3

CON=C(C1=NOCCO1)c1ccccc1Oc1nccc(NCCc2ccccc2)n1 [Example 139]
chromatographic logP (HPLC logP; Table 1): 2.4

CON=C(C1=NOCCO1)c1ccccc1Oc1nccc(OCCCc2ccccc2)n1 [Example 101]
chromatographic logP (HPLC logP; Table 1): 3.4

CON=C(C1=NOCCO1)c1ccccc1Oc1nccc(Cl)n1 [II-1, [2-(4-chloro-pyrimidin-2-yloxy)-phenyl]-(5,6-dihydro-[1,4,2]dioxazin-3-yl)-methanone O-methyl oxime]
chromatographic logP (HPLC logP): 2

CON=C(C1=NOCCO1)c1ccccc1Oc1nccc(OCC(F)(F)C(F)(F)F)n1 [Example 8]
pest or weed control at 100 g/ha (Plasmopara viticola): ≤ 100%
chromatographic logP (HPLC logP; Table 1): 3.1
Efficacy in % (Sphaerotheca fuliginea): more than 90%
